Results published in US9533987B2, “Heterocyclic derivates” (KALVISTA PHARMACEUTICALS LIMITED, priority 2013, dated 2017).

How the values were obtained:
Assay type in all cases: biochemical
Human plasma kallikrein = Human plasma kallikrein (Homo sapiens (Human), UniProt P03952); assay: Determination of the IC50 for plasma kallikrein (fluorogenic substrate H-DPro-Phe-Arg-AFC); conditions: 37° C., read-out: IC50 (human PKaI)
Method: Determination of the IC50 for Plasma Kallikrein
(§1) Human plasma kallikrein (Protogen) was incubated at 37° C. with the fluorogenic substrate H-DPro-Phe-Arg-AFC and various concentrations of the test compound. Residual enzyme activity (initial rate of reaction) was determined by measuring the change in […] at 410 nm and the IC50 value for the test compound was determined.

Human KLK1 = Human KLK1 (Homo sapiens (Human), UniProt P06870); assay: Determination of the IC50 for KLK1 (fluorogenic substrate H-DVal-Leu-Arg-AFC); conditions: 37° C.
Sequence of Human KLK1 (P06870 25-262): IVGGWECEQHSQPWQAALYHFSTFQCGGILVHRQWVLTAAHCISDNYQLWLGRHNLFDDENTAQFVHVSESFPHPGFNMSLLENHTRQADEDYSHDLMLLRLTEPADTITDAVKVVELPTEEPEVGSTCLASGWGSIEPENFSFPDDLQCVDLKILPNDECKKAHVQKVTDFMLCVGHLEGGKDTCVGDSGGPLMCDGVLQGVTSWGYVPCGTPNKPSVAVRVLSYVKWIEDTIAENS
Method: Determination of the IC50 for KLK1
as §1, with “KLK1 (Callbiochem)” for “plasma kallikrein (Protogen)”, “H-DVal-Leu-Arg-AFC” for “H-DPro-Phe-Arg-AFC”

Factor XIIa = Factor XIIa (Homo sapiens (Human), UniProt P00748); assay: Determination of enzyme selectivity, Factor XIIa; conditions: substrate at Km concentration
Sequence of Factor XIIa (P00748 373-615): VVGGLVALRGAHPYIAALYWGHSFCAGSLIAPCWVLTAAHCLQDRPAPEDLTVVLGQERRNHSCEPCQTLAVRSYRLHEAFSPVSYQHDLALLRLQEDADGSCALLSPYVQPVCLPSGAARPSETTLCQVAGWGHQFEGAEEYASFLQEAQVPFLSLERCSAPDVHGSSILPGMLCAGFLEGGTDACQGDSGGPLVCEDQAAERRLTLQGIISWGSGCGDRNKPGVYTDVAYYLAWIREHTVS
Method: Determination of Enzyme Selectivity
Human serine protease enzymes plasmin, thrombin, trypsin, Factor Xa and Factor XIIa were assayed for enzymatic activity using an appropriate fluorogenic substrate. Protease activity was measured by monitoring the accumulation of liberated fluorescence from the substrate over 5 minutes. The linear rate of fluorescence increase per minute was expressed as percentage (%) activity. The Km for the cleavage of each substrate was determined by standard transformation of the Michaelis-Menten equation.

Sequence of Human plasma kallikrein (P03952 391-638): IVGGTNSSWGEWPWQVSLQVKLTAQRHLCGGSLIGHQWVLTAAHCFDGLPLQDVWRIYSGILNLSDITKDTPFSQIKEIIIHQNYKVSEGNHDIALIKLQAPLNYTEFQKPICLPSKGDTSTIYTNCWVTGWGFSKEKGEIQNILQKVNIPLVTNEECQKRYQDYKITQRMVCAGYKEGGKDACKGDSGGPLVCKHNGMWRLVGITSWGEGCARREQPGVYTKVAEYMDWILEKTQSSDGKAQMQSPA
Sequence of Human plasma kallikrein (P03952 20-390 partner): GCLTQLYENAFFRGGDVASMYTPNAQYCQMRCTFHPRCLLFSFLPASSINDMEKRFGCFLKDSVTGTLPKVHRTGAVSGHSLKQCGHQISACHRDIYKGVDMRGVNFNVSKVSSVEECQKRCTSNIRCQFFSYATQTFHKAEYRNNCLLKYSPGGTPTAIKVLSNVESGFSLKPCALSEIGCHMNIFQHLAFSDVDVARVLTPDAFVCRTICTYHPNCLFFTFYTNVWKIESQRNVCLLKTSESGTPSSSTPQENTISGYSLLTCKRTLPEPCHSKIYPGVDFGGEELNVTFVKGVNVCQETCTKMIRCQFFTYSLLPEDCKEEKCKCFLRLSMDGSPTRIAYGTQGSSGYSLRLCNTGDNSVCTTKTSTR

IC50 (Human plasma kallikrein)	IC50 (Human KLK1)	IC50 (Factor XIIa)	Compound
0.576 µM	11.7 µM	> 40000 nM	Nc1nccc2cc(CNC(=O)c3cnn(Cc4ccnc(N5CCCC5)c4)c3C(F)(F)F)ccc12 [Example 51, 1-(2-Pyrrolidin-1-yl-pyridin-4-ylmethyl)-5-trifluoromethyl-1H-pyrazole-4-carboxylic acid (1-amino-isoquinolin-6-ylmethyl)-amide]
0.3 µM	> 40 µM	> 40000 nM	Nc1nccc2cc(CNC(=O)c3cnn(Cc4cc5cc(OC(F)(F)F)ccc5[nH]4)c3)ccc12 [Example 52, 1-(5-Trifluoromethoxy-1H-indol-2-ylmethyl)-1H-pyrazole-4-carboxylic acid (1-amino-isoquinolin-6-ylmethyl)-amide]
0.0467 µM	18.2 µM	> 4000 nM	Nc1nccc2cc(CNC(=O)c3cn(Cc4ccnc(N5CCCC5)c4)nc3C(F)(F)F)ccc12 [Example 54, 1-(2-Pyrrolidin-1-yl-pyridin-4-ylmethyl)-3-trifluoromethyl-1H-pyrazole-4-carboxylic acid (1-amino-isoquinolin-6-ylmethyl)-amide]
0.0792 µM	3.81 µM	> 10000 nM	CCOc1ccc(Cn2cc(C(=O)NCc3ccc4c(N)nccc4c3)c(C(F)(F)F)n2)cn1 [Example 55, 1-(6-Ethoxy-pyridin-3-ylmethyl)-3-trifluoromethyl-1H-pyrazole-4-carboxylic acid (1-amino-isoquinolin-6-ylmethyl)-amide]
0.0718 µM	> 10 µM	> 10000 nM	Nc1nccc2cc(CNC(=O)c3cn(Cc4ccnc(N5CCC(F)(F)C5)c4)nc3C(F)(F)F)ccc12 [Example 56, 1-[2-(3,3-Difluoro-pyrrolidin-1-yl)-pyridin-4-ylmethyl]-3-trifluoromethyl-1H-pyrazole-4-carboxylic acid (1-amino-isoquinolin-6-ylmethyl)-amide]
0.0149 µM	> 10 µM	> 10000 nM	Nc1nccc2cc(CNC(=O)c3cn(Cc4ccc(N5CCC(F)(F)C5)nc4)nc3C(F)(F)F)ccc12 [Example 57, 1-[6-(3,3-Difluoro-pyrrolidin-1-yl)-pyridin-3-ylmethyl]-3-trifluoromethyl-1H-pyrazole-4-carboxylic acid (1-amino-isoquinolin-6-ylmethyl)-amide]
0.00584 µM	4 µM	> 1000 nM	C[C@H]1CCN(c2ccc(Cn3cc(C(=O)NCc4ccc5c(N)nccc5c4)c(C(F)(F)F)n3)cn2)C1 [Example 59, 1-[6-((S)-3-Methyl-pyrrolidin-1-yl)-pyridin-3-ylmethyl]-3-trifluoromethyl-1H-pyrazole-4-carboxylic acid (1-amino-isoquinolin-6-ylmethyl)-amide]
0.00961 µM	9.57 µM	> 10000 nM	Nc1nccc2cc(CNC(=O)c3cn(Cc4ccc(N5CC[C@H](F)C5)nc4)nc3C(F)(F)F)ccc12 [Example 60, 1-[6-((S)-3-Fluoro-pyrrolidin-1-yl)-pyridin-3-ylmethyl]-3-trifluoromethyl-1H-pyrazole-4-carboxylic acid (1-amino-isoquinolin-6-ylmethyl)-amide]
0.0181 µM	7.66 µM	> 10000 nM	Nc1nccc2cc(CNC(=O)c3cn(Cc4ccc(N5CC[C@@H](F)C5)nc4)nc3C(F)(F)F)ccc12 [Example 61, 1-[6-((R)-3-Fluoro-pyrrolidin-1-yl)-pyridin-3-ylmethyl]-3-trifluoromethyl-1H-pyrazole-4-carboxylic acid (1-amino-isoquinolin-6-ylmethyl)-amide]
0.0136 µM	> 10 µM	> 10000 nM	C[C@H]1CCCN1c1ccc(Cn2cc(C(=O)NCc3ccc4c(N)nccc4c3)c(C(F)(F)F)n2)cn1 [Example 62, 1-[6-((S)-2-Methyl-pyrrolidin-1-yl)-pyridin-3-ylmethyl]-3-trifluoromethyl-1H-pyrazole-4-carboxylic acid (1-amino-isoquinolin-6-ylmethyl)-amide]
0.0123 µM	5.7 µM	> 10000 nM	C[C@@H]1CCCN1c1ccc(Cn2cc(C(=O)NCc3ccc4c(N)nccc4c3)c(C(F)(F)F)n2)cn1 [Example 63, 1-[6-((R)-2-Methyl-pyrrolidin-1-yl)-pyridin-3-ylmethyl]-3-trifluoromethyl-1H-pyrazole-4-carboxylic acid (1-amino-isoquinolin-6-ylmethyl)-amide]
0.108 µM	8.88 µM	> 10000 nM	C[C@@H]1CCN(c2cc(Cn3cc(C(=O)NCc4ccc5c(N)nccc5c4)c(C(F)(F)F)n3)ccn2)C1 [Example 67, 1-[2-((R)-3-Methyl-pyrrolidin-1-yl)-pyridin-4-ylmethyl]-3-trifluoromethyl-1H-pyrazole-4-carboxylic acid (1-amino-isoquinolin-6-ylmethyl)-amide]
0.059 µM	9.76 µM	> 10000 nM	C[C@H]1CCN(c2cc(Cn3cc(C(=O)NCc4ccc5c(N)nccc5c4)c(C(F)(F)F)n3)ccn2)C1 [Example 68, 1-[2-((S)-3-Methyl-pyrrolidin-1-yl)-pyridin-4-ylmethyl]-3-trifluoromethyl-1H-pyrazole-4-carboxylic acid (1-amino-isoquinolin-6-ylmethyl)-amide]
17 µM	> 40 µM	> 40000 nM	Cc1nc(C)c(N(C)Cc2ccc(Cn3cc(C(=O)NCc4cnc5[nH]ccc5c4)cn3)cc2)s1 [Example 105, 1-(4-{[(2,4-Dimethyl-thiazol-5-yl)-methyl-amino]-methyl}-benzyl)-1H-pyrazole-4-carboxylic acid (1H-pyrrolo[2,3-b]pyridin-5-ylmethyl)-amide]
12 µM	> 40 µM	> 40000 nM	O=C(NCc1cnc2[nH]ccc2c1)c1cnn(Cc2cccc(Oc3ncccc3F)c2)c1 [Example 106, 1-[3-(3-Fluoro-pyridin-2-yloxy)-benzyl]-1H-pyrazole-4-carboxylic acid (1H-pyrrolo[2,3-b]pyridin-5-ylmethyl)-amide]
2.3 µM	38.1 µM	> 40000 nM	O=C(NCc1cnc2[nH]ccc2c1)c1cnn(Cc2ccc(Oc3ccccn3)cc2)c1 [Example 107, 1-[4-(Pyridin-2-yloxy)-benzyl]-1H-pyrazole-4-carboxylic acid (1H-pyrrolo[2,3-b]pyridin-5-ylmethyl)-amide]
22 µM	20.6 µM	> 40000 nM	O=C(NCc1cnc2[nH]ccc2c1)c1cnn(Cc2cccc(Oc3ccccc3)c2)c1 [Example 108, 1-(3-Phenoxy-benzyl)-1H-pyrazole-4-carboxylic acid (1H-pyrrolo[2,3-b]pyridin-5-ylmethyl)-amide]
4.2 µM	> 40 µM	> 40000 nM	O=C(NCc1cnc2[nH]ccc2c1)c1cnn(Cc2ccc(COc3cccc(F)n3)cc2)c1 [Example 109, 1-[4-(6-Fluoro-pyridin-2-yloxymethyl)-benzyl]-1H-pyrazole-4-carboxylic acid (1H-pyrrolo[2,3-b]pyridin-5-ylmethyl)-amide]
0.562 µM	> 10 µM	> 10000 nM	Cc1cnn(Cc2ccc(Cn3cc(C(=O)NCc4ccc5[nH]c(C)cc5c4)c(C(F)(F)F)n3)cc2)c1 [Example 110, 1-[4-(4-Methyl-pyrazol-1-ylmethyl)-benzyl]-3-trifluoromethyl-1H-pyrazole-4-carboxylic acid (2-methyl-1H-indol-5-ylmethyl)-amide]
0.217 µM	7.17 µM	> 10000 nM	Cc1cnn(Cc2ccc(Cn3cc(C(=O)NCc4ccc5[nH]ncc5c4)c(C(F)(F)F)n3)cc2)c1 [Example 111, 1-[4-(4-Methyl-pyrazol-1-ylmethyl)-benzyl]-3-trifluoromethyl-1H-pyrazole-4-carboxylic acid (1H-indazol-5-ylmethyl)-amide]
0.0606 µM	> 10 µM	> 10000 nM	Cc1cnn(Cc2ccc(Cn3cc(C(=O)NCc4ccc5[nH]ccc5c4)c(C(F)(F)F)n3)cc2)c1 [Example 112, 1-[4-(4-Methyl-pyrazol-1-ylmethyl)-benzyl]-3-trifluoromethyl-1H-pyrazole-4-carboxylic acid (1H-indol-5-ylmethyl)-amide]
0.177 µM	> 10 µM	> 10000 nM	Cc1cnn(Cc2ccc(Cn3cc(C(=O)NCc4cnc5[nH]ccc5c4)nn3)cc2)c1 [Example 115, 1-[4-(4-Methyl-pyrazol-1-ylmethyl)-benzyl]-1H-[1,2,3]triazole-4-carboxylic acid (1H-pyrrolo[2,3-b]pyridin-5-ylmethyl)-amide]
0.507 µM	> 10 µM	> 10000 nM	Cc1cnn(Cc2ccc(Cn3cc(C(=O)NCc4cc5cc[nH]c5nc4C)nn3)cc2)c1 [Example 116, 1-[4-(4-Methyl-pyrazol-1-ylmethyl)-benzyl]-1H-[1,2,3]triazole-4-carboxylic acid (6-methyl-1H-pyrrolo[2,3-b]pyridin-5-ylmethyl)-amide]
0.014 µM	> 40 µM	> 40000 nM	Cc1cnn(Cc2ccc(Cn3cc(C(=O)NCc4c(C)nc5[nH]ccc5c4C)cn3)cc2)c1 [Example 118, 1-[4-(4-Methyl-pyrazol-1-ylmethyl)-benzyl]-1H-pyrazole-4-carboxylic acid (4,6-dimethyl-1H-pyrrolo[2,3-b]pyridin-5-ylmethyl)-amide]
